Read-outs that look alike come from different tables or passages of the source.
Legend:
[1] = biological target: T1, Recombinant TYK2 (Homo sapiens, UniProt P29597); assay: JAK biochemical assay (LANCE Ultra TR-FRET), TYK2; details: recombinant TYK2, TR-FRET; read-out: Biochemical Assay (μM) TYK2
T1 construct: purchased Carna Biosciences
Outline: (§1)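 % inhibition relative to vehicle was derived from TR-FRET signal proportional to ULight-substrate phosphorylation. Reactions used recombinant kinase in HEPES pH 7.5 buffer containing EGTA, MgCl2, DTT and Tween-20.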

[2] = biological target: T2, Recombinant JAK1 (Homo sapiens, UniProt P23458); assay: JAK biochemical assay (LANCE Ultra TR-FRET), JAK1; details: recombinant JAK1, TR-FRET; read-out: Biochemical Assay (μM) JAK1
T2 construct: purchased Carna Biosciences
T2 sequence (P23458 whole entry): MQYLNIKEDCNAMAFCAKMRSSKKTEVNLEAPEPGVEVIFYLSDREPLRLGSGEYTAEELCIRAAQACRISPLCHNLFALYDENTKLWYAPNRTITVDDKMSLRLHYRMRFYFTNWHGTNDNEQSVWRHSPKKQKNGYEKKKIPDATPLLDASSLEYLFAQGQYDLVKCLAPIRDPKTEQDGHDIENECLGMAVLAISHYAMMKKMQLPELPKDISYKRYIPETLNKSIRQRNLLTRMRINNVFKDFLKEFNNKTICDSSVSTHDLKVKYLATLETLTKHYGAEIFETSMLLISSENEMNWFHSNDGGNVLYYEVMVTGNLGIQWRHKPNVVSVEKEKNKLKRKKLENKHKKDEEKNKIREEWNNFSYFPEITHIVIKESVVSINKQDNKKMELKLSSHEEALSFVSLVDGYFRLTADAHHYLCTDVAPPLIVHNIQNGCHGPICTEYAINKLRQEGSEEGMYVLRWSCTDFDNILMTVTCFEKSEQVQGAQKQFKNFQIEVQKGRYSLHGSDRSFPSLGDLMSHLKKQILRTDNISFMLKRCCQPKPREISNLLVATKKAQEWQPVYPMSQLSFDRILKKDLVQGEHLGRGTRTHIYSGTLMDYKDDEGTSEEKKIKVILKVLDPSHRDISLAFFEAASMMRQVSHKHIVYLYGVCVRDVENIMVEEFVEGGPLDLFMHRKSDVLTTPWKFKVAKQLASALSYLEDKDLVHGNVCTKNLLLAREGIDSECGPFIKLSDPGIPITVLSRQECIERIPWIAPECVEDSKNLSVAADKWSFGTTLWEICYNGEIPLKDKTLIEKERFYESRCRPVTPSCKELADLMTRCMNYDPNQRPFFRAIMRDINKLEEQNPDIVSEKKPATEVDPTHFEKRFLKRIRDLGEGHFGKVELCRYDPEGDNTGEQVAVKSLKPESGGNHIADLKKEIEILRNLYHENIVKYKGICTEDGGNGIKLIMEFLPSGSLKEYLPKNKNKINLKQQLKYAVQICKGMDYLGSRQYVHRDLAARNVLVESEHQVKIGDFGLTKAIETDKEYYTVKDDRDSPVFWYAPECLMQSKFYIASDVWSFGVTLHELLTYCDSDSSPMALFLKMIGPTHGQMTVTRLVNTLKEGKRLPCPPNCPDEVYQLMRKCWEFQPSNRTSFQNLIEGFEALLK
Outline: as §1

[3] = test system: STAT3 phosphorylation by IL-6 in TF-1 cells; assay: JAK cellular assay: STAT3 phosphorylation by IL-6 in TF-1 cells (HTRF); type: cell-based; details: IL-6 30 ng/ml, pSTAT3 HTRF, read-out: Cell Based Assay (μM) TF-1/IL-6/pSTAT3
Method: (§2) TF-1 cells were starved overnight in OptiMEM medium with 0.5% charcoal stripped fetal bovine serum, 0.1 mM nonessential amino acids (NEAA), 1 mM sodium pyruvate and without phenol red in CO2 incubator maintained at 37° c. Next day, cells were resuspended in RPMI without phenol red and dispensed into a 96 well plate at a final cell density of 1,20,000 cells per well. Compounds were diluted in DMSO and added to cells and incubated for 30 minutes in CO2 incubator maintained at 37° c. Final DMSO concentration in cell based assay was 0.2%. Human recombinant cytokines, IL-6 (30 ng/ml) and GMCSF (5 ng/ml) were added to the plate containing cells along with compound and incubated for 20 minutes with gentle tapping at every 5 minutes once. Compound mediated effects on STAT3 and STAT5 phosphorylation was measured in the lysates prepared by using CISBIO pSTAT3 and pSTAT5 detection kits by HTRF method. Background signal obtained from cells which were not activated with cytokines, was subtracted from vehicle controls and compound treated wells.

[4] = biological target: T3, Recombinant JAK3 (Homo sapiens, UniProt P52333); assay: JAK biochemical assay (LANCE Ultra TR-FRET), JAK3; details: recombinant JAK3, TR-FRET; read-out: Biochemical Assay (μM) JAK3
T3 construct: purchased Carna Biosciences
T3 sequence (P52333 1-1124): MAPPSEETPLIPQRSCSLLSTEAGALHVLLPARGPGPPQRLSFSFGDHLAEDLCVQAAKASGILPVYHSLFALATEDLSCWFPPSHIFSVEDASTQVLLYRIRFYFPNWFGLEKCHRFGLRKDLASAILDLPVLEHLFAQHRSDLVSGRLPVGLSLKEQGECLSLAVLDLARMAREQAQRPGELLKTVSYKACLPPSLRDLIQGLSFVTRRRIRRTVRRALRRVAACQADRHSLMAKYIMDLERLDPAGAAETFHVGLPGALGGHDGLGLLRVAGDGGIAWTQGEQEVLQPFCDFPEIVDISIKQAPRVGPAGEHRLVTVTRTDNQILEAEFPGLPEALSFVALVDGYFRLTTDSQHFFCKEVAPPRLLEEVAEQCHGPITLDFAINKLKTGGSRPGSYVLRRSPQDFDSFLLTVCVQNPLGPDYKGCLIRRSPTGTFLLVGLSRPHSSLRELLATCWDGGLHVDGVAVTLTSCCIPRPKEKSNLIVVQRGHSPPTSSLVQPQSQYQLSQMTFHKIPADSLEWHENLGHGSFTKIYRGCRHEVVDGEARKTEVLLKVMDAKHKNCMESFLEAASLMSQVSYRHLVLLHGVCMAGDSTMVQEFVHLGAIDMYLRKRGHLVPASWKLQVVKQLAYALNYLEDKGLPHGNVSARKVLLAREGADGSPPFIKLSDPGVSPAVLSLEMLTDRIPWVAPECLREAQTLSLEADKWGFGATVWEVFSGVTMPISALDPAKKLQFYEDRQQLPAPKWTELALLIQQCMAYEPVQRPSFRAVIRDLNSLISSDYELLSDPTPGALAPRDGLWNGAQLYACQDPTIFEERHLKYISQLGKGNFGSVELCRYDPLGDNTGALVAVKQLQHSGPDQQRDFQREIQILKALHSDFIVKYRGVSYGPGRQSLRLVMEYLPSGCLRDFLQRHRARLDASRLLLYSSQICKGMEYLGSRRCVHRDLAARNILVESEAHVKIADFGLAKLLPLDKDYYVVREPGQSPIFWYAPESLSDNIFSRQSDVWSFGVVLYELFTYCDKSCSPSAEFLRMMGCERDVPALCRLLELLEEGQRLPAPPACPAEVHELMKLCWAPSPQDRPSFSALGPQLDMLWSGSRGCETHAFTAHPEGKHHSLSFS
Outline: as §1

[5] = test system: STAT5 phosphorylation by GMCSF in TF-1 cells; assay: JAK cellular assay: STAT5 phosphorylation by GMCSF in TF-1 cells (HTRF); type: cell-based; details: TF-1 cells, GMCSF 5 ng/ml, pSTAT5 HTRF, read-out: Cell Based Assay (μM) TF-1/GMCSF/pSTAT5
Method: as §2

[6] = biological target: T4, Recombinant JAK2 (Homo sapiens, UniProt O60674); assay: JAK biochemical assay (LANCE Ultra TR-FRET), JAK2; details: recombinant JAK2, TR-FRET; read-out: Biochemical Assay (μM) JAK2
T4 construct: purchased Carna Biosciences
T4 sequence (O60674 whole entry): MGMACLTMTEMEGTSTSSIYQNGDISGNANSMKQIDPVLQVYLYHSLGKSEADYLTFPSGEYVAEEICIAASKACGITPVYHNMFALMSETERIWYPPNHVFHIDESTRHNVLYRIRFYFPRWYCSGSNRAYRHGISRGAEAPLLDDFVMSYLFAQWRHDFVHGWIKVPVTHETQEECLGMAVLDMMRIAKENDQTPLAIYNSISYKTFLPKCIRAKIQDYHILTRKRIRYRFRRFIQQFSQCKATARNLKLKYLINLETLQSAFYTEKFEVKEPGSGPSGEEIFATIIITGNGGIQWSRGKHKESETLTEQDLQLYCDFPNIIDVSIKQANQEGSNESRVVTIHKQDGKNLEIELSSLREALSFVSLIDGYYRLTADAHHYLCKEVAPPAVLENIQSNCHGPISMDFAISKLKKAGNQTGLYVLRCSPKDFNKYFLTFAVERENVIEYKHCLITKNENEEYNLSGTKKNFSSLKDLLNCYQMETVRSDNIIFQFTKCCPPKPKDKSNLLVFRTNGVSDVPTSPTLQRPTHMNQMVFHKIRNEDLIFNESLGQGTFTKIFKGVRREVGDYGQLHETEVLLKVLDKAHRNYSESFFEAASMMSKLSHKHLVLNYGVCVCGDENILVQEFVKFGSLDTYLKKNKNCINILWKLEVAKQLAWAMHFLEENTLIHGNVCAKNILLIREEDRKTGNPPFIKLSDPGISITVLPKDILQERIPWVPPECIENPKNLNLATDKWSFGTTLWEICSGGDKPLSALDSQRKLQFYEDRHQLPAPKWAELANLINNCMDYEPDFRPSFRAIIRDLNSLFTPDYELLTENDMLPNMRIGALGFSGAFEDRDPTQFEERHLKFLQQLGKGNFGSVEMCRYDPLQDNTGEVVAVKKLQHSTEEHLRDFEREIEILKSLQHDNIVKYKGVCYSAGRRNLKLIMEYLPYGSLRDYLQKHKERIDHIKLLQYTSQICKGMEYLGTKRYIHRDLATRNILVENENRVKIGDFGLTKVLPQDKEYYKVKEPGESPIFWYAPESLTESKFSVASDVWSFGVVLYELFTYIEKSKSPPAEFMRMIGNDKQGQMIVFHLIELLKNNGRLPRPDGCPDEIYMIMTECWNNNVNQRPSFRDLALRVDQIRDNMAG
Outline: as §1

T1 sequence (P29597 whole entry): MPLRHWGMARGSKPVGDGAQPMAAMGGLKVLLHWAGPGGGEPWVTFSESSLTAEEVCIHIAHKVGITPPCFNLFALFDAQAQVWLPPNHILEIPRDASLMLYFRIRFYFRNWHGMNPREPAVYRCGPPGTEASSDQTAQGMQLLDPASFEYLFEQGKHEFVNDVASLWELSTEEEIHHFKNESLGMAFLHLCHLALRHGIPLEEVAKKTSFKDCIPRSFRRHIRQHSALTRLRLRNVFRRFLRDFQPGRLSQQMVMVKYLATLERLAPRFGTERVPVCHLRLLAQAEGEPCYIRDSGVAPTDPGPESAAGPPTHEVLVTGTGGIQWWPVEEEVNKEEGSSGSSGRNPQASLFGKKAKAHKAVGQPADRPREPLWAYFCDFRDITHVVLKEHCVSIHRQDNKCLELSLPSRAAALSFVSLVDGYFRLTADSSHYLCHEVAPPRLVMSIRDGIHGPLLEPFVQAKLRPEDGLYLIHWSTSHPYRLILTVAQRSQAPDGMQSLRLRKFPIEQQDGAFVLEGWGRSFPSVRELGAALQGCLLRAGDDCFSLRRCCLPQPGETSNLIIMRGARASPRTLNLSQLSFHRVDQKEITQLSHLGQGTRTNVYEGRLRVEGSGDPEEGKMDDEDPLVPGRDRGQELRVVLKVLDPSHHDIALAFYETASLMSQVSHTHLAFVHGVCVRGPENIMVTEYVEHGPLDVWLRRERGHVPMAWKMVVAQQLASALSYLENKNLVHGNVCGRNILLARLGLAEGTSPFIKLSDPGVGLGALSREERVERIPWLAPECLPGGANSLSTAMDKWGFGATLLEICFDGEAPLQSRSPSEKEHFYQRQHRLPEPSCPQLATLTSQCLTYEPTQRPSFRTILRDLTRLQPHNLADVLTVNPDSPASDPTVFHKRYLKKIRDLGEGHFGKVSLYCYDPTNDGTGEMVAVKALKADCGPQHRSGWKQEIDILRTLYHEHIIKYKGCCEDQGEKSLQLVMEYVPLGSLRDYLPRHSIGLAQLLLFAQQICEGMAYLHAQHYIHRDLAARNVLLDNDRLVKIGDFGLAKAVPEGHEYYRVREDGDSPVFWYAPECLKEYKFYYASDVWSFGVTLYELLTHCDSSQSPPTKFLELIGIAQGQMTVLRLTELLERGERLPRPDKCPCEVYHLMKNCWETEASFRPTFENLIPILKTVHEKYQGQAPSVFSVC

Row | SMILES | IC50 [1] [µM] | IC50 [2] [µM] | IC50 ([3]; Homo sapiens, TF-1, TF-1 cells) [µM] | IC50 [4] [µM] | IC50 ([5]; Homo sapiens) [µM] | IC50 [6] [µM] | IC50 ([3]; TF-1 cells) [µM] | IC50 [5] [µM]
1 | N#CCC(NC(=O)n1cc(-c2ccnc3[nH]c(=O)[nH]c23)cn1)C(F)(F)F (stereo not drawn) [Example 1050, N-(3-cyano-1,1,1-trifluoropropan-2-yl)-4-(2,3-dihydro-2-oxo-1H-imidazo[4,5-b]pyridin-7-yl)-1H-pyrazole-1-carboxamide] | < 0.5 | < 0.5 | < 10 | < 0.5 | > 10 | < 0.5 | – | –
2 | N#CCC(NC(=O)n1cc(-c2ccnc3[nH]c(=O)[nH]c23)cn1)C1CC1 (stereo not drawn) [Example 1051, N-(2-cyano-1-cyclopropylethyl)-4-(2,3-dihydro-2-oxo-1H-imidazo[4,5-b]pyridin-7-yl)-1H-pyrazole-1-carboxamide] | < 0.5 | < 0.5 | < 10 | > 1 | > 10 | < 0.5 | – | –
3 | N#C[C@H](NC(=O)n1cc(-c2ccnc3[nH]c(=O)[nH]c23)cn1)C1CC1 [Example 1054, N-((R)-cyano(cyclopropyl)methyl)-4-(2,3-dihydro-2-oxo-1H-imidazo[4,5-b]pyridin-7-yl)-1H-pyrazole-1-carboxamide] | > 1 | > 10 | > 1 | > 1 | 10 | > 0.5 | – | –
4 | N#CC1CCN(C(=O)n2cc(-c3ccnc4[nH]cnc34)cn2)CC1 [Example 1067, 1-(4-(3H-imidazo[4,5-b]pyridin-7-yl)-1H-pyrazole-1-carbonyl)piperidine-4-carbonitrile] | > 10 | > 1 | > 10 | > 0.5 | > 10 | > 0.5 | – | –
5 | CC(CN1CC(C#N)C1)NC(=O)n1cc(-c2ccnc3[nH]cnc23)cn1 (stereo not drawn) [Example 1068, N-(1-(3-cyanoazetidin-1-yl)propan-2-yl)-4-(3H-imidazo[4,5-b]pyridin-7-yl)-1H-pyrazole-1-carboxamide] | > 1 | > 1 | > 10 | > 1 | > 10 | > 1 | – | –
6 | N#CC(NC(=O)n1cc(-c2ccnc3[nH]cnc23)cn1)c1ccccc1 (stereo not drawn) [Example 1070, N-(cyano(phenyl)methyl)-4-(3H-imidazo[4,5-b]pyridin-7-yl)-1H-pyrazole-1-carboxamide] | > 0.5 | > 0.5 | > 10 | > 0.5 | > 10 | < 0.5 | – | –
7 | CC(C)[C@@H](C#N)NC(=O)n1cc(-c2ccnc3[nH]cnc23)cn1 [Example 1073, N-((S)-1-cyano-2-methylpropyl)-4-(3H-imidazo[4,5-b]pyridin-7-yl)-1H-pyrazole-1-carboxamide] | > 0.5 | > 1 | > 1 | > 0.5 | > 10 | > 0.5 | – | –
8 | CC1CN(C(=O)n2cc(-c3ccnc4[nH]cnc34)cn2)CC1C#N (stereo not drawn) [Example 1074, 1-(4-(3H-imidazo[4,5-b]pyridin-7-yl)-1H-pyrazole-1-carbonyl)-4-methylpyrrolidine-3-carbonitrile] | > 1 | > 10 | > 10 | > 1 | > 10 | > 1 | – | –
9 | N#CCc1coc(-n2cc(-c3ccnc4[nH]cnc34)cn2)n1 [Example 1075, 2-(2-(4-(3H-imidazo[4,5-b]pyridin-7-yl)-1H-pyrazol-1-yl)oxazol-4-yl)acetonitrile] | > 1 | 0.046 | 3.1 | < 0.5 | > 10 | 0.19 | – | –

The next lines start with the values.

Row | IC50 [1] [µM] | IC50 [2] [µM] | IC50 ([3]; Homo sapiens, TF-1, TF-1 cells) [µM] | IC50 [4] [µM] | IC50 ([5]; Homo sapiens) [µM] | IC50 [6] [µM] | IC50 ([3]; TF-1 cells) [µM] | IC50 [5] [µM] | SMILES
10 | < 0.5 | < 0.5 | 4.9 | < 0.5 | 10 | < 0.5 | – | – | CC(C)[C@@H](C#N)NC(=O)n1cc(-c2ccnc3[nH]c(=O)[nH]c23)cn1 [Example 1047, N-((S)-1-cyano-2-methylpropyl)-4-(2,3-dihydro-2-oxo-1H-imidazo[4,5-b]pyridin-7-yl)-1H-pyrazole-1-carboxamide]
11 | < 0.5 | < 0.5 | > 10 | < 0.5 | > 10 | < 0.5 | – | – | N#CC1CN(C(=O)n2cc(-c3ccnc4[nH]c(=O)[nH]c34)cn2)C1 [Example 1048, 1-(4-(2-oxo-2,3-dihydro-1H-imidazo[4,5-b]pyridin-7-yl)-1H-pyrazole-1-carbonyl)azetidine-3-carbonitrile]
12 | < 0.5 | < 0.5 | < 10 | < 0.5 | > 10 | < 0.5 | – | – | CC(C)[C@H](C#N)NC(=O)n1cc(-c2ccnc3[nH]c(=O)[nH]c23)cn1 [Example 1049, N-((R)-1-cyano-2-methylpropyl)-4-(2,3-dihydro-2-oxo-1H-imidazo[4,5-b]pyridin-7-yl)-1H-pyrazole-1-carboxamide]
13 | < 0.5 | < 0.5 | – | > 0.5 | – | < 0.5 | > 10 | > 10 | CC(CC#N)NC(=O)n1cc(-c2ccnc3[nH]c(=O)[nH]c23)cn1 (stereo not drawn) [Example 1052, N-(1-cyanopropan-2-yl)-4-(2,3-dihydro-2-oxo-1H-imidazo[4,5-b]pyridin-7-yl)-1H-pyrazole-1-carboxamide]
14 | > 0.5 | > 1 | > 10 | > 1 | > 10 | < 0.5 | – | – | N#CC1CCN(C(=O)n2cc(-c3ccnc4[nH]c(=O)[nH]c34)cn2)C1 (stereo not drawn) [Example 1055, 1-(4-(2-oxo-2,3-dihydro-1H-imidazo[4,5-b]pyridin-7-yl)-1H-pyrazole-1-carbonyl)pyrrolidine-3-carbonitrile]
15 | > 0.5 | < 0.5 | > 10 | < 0.5 | > 10 | < 0.5 | – | – | N#CC1CC(NC(=O)n2cc(-c3ccnc4[nH]c(=O)[nH]c34)cn2)C1 (stereo not drawn) [Example 1056, N-(3-cyanocyclobutyl)-4-(2,3-dihydro-2-oxo-1H-imidazo[4,5-b]pyridin-7-yl)-1H-Pyrazole-1-carboxamide]
16 | > 10 | > 1 | > 10 | > 10 | > 10 | > 1 | – | – | CC(NC(=O)n1cc(-c2ccnc3[nH]c(=O)[nH]c23)cn1)C(=O)N1CC(C#N)C1 (stereo not drawn) [Example 1058, N-(1-(3-cyanoazetidin-1-yl)-1-oxopropan-2-yl)-4-(2-oxo-2,3-dihydro-1H-imidazo[4,5-b]pyridin-7-yl)-1H-pyrazole-1-carboxamide]

From patent publication US12516056B2, “Compounds for inhibition of janus kinase 1” (MANKIND PHARMA LTD., priority 2019, dated 2026)
